From paper PMC4645160, “Targeting kinases with anilinopyrimidines: discovery of N-phenyl-N’-[4-(pyrimidin-4-ylamino)phenyl]urea derivatives as selective inhibitors of class III receptor tyrosine kinase subfamily” (Scientific Reports, 2015)
“And” between values parts separate entries of the source, which are not always exact repeats. Equal entries are not always repeated.

Legend:
A549 cells = assay: MTT cytotoxicity assay, A549 lung cancer cells; format: cell-based, human
Protocol: (§1) Compounds active against at least one kinase among EGFR and class III RTKs were evaluated for their cytotoxic properties against two different human cancer cell lines, namely non small cells A549 lung cancer cells (sensitive to EGFR inhibitors)[46] and pancreatic BxPC3 adenocarcinoma (sensitive to both PDGFRβ and EGFR inhibitors)[47][48] cells. […] The results, expressed as IC50 values (μM) calculated from the dose-survival curves obtained after 72 h of drug treatment from the MTT test, are reported in Table 1.
(§2) All compounds, except derivative 27, were dissolved in DMSO just before the experiment, and a calculated amount of drug solution was added to the cell growth medium to a final solvent concentration of 0.5%, which had no discernible effect on cell killing. Compound 27 was dissolved in a 0.9% NaCl solution just before the experiment.
(§3) Human lung (A549), breast (MCF-7), pancreas (BxPC3), and colon (LoVo) carcinoma cell lines along with melanoma (A375) were obtained from American Type Culture Collection (ATCC, Rockville, MD). Human non-tumor embryonic kidney HEK293 cells were obtained from European Collection of Cell Cultures (ECACC, Salisbury, UK). Human cervical carcinoma A431cells were kindly provided by Prof. F. Zunino (Division of Experimental Oncology B, Istituto Nazionale dei Tumori, Milan, Italy). Human ovarian cancer 2008 cells were kindly provided by Prof. G. Marverti (Dept. of Biomedical Science of Modena University, Italy). Cell lines were maintained in the logarithmic phase at 37 °C in a 5% carbon dioxide atmosphere using the following culture media containing 10% fetal calf serum (Euroclone, Milan, Italy), antibiotics (50 units ∙ mL^−1 penicillin and 50 μg ∙ mL^−1 streptomycin) and 2 mM l-glutamine: i) RPMI-1640 medium (Euroclone) for MCF-7, A431, BxPC3 and 2008 cells; ii) F-12 HAM’S (Sigma Chemical Co.) for A549 and LoVo cells; iii) D-MEM medium (Euroclone) for HEK293 cells.
(§4) The growth inhibitory effect towards human cell lines was evaluated by means of MTT (tetrazolium salt reduction) assay. Briefly, 3–8 ∙ 10^3 cells/well, dependent upon the growth characteristics of the cell line, were seeded in 96-well microplates in growth medium (100 μL) and then incubated at 37 °C in a 5% carbon dioxide atmosphere. After 24 h, the medium was removed and replaced with a fresh one containing the test compound at the appropriate concentration. Triplicate cultures were established for each treatment. After 72 h, each well was treated with 10 μL of a 5 mg ∙ mL-1 MTT (3-(4,5-dimethylthiazol-2-yl)-2,5-diphenyltetrazolium bromide) saline solution, and after 5 h additional incubation, 100 μL of a sodium dodecylsulfate (SDS) solution in HCl 0.01 M were added. After overnight incubation, the inhibition of cell growth induced by the tested complexes was detected by measuring the absorbance of each well at 570 nm using a Bio-Rad 680 microplate reader (Bio-Rad, Hercules, CA). Mean absorbance for each drug dose was expressed as a percentage of the control untreated well absorbance and plotted vs drug concentration.

BxPC3 cells = assay: MTT cytotoxicity assay, BxPC3 pancreatic adenocarcinoma cells; format: cell-based, human
Protocol: as §1, §2, §3, §4

HEK293 cells = assay: MTT cytotoxicity assay, non-tumor HEK293 cells; format: cell-based, human
Protocol: F. Zunino (Division of Experimental Oncology B, Istituto Nazionale dei Tumori, Milan, Italy).
The growth inhibitory effect towards human cell lines was evaluated by means of MTT (tetrazolium salt reduction) assay. […] Triplicate cultures were established for each treatment.

panel of 48 kinases = assay: KinomeScan primary screening (POC) at 10 μM; format: binding, human; settings: POC values
From the text: Synthesized compounds were screened against a panel of 48 kinases selected within the ScanEDGE subset of DiscoverX (http://www.discoverx.com/services/drug-discovery-development-services/kinase-profiling/kinomescan/scanedge). The ScanEDGE includes 97 kinases and is an economical approach to assess compounds selectivity throughout the human kinome. All the wt-TKs along with some relevant mutants of Abl1 (T315I) and of EGFR (L858R and L858R/T790M) were chosen. The remaining 18 targets (3 Tyrosine Kinases-Like, TKLs; 15 Serine-Threonine Kinases, STKs) were selected among the remaining kinases in the ScanEDGE subset on the basis of their well established role in cancer (see Fig. S2 for a graphical representation of the selected kinases with reference to the kinome tree. Some references highlighting the role of each kinase in cancer are also reported in Table S3).
The compounds were evaluated using the KinomeScan™ platform (http://www.discoverx.com/services/drug-discovery-development-services/kinase-profiling/kinomescan), that measures the ability of the test compound to disrupt the complex between a high affinity ATP-mimic probe immobilized on a solid support and the kinase of interest. The KinomeScan is a very helpful technology for the fast and reliable screening of a number of compounds against a wide and customizable panel of kinases. Besides, it is not based on the use of hazardous radioactive ^32P-ATP and has a very low rate of false positive (<1%)[44]. The screening platform outputs a “Percent of Control” (POC) value, statistically correlated to the dissociation constant (Kd) value (http://www.discoverx.com/tools-resources/leadhunter-study-reports-data-analysis), for each pair of kinase/ligand. The POC is calculated as reported in equation (1):
Where: test compound signal = amount of kinase still binding the probe after treatment with test compound; negative control signal = amount of kinase still binding the probe after treatment with DMSO (100% control); positive control signal = amount of kinase still binding the probe after treatment with control compound (0% control).
(§5) The compounds were tested at high concentration (10 μM), in order to highlight not only the main target but also the off-targets. The results of the preliminary screening are reported as heat map (Fig. 4; see also Table S4 for all the measured values), in which the compounds are grouped on the basis of the 6 or 5 substituent at the pyrimidine ring.

EGFR = target: T1, EGFR (Homo sapiens, UniProt P00533); assay: KinomeScan primary screening (POC) at 10 μM, EGFR; format: binding; settings: POC values
T1 construct: purchased DiscoverX (KinomeScan, ScanEDGE subset)
Protocol: Synthesized compounds were screened against a panel of 48 kinases selected within the ScanEDGE subset of DiscoverX (http://www.discoverx.com/services/drug-discovery-development-services/kinase-profiling/kinomescan/scanedge). The ScanEDGE includes 97 kinases and is an economical approach to assess compounds selectivity throughout the human kinome. All the wt-TKs along with some relevant mutants of Abl1 (T315I) and of EGFR (L858R and L858R/T790M) were chosen. […]
The compounds were evaluated using the KinomeScan™ platform (http://www.discoverx.com/services/drug-discovery-development-services/kinase-profiling/kinomescan), that measures the ability of the test compound to disrupt the complex between a high affinity ATP-mimic probe immobilized on a solid support and the kinase of interest. […] The POC is calculated as reported in equation (1): […]
as §5

[1] = test system: Lewis Lung Carcinoma (LLC); assay: In vivo anticancer activity toward Lewis Lung Carcinoma (LLC); settings: LLC in C57BL mice, 27 at 7.5 mg/kg, CDDP at 1.5 mg/kg
From the text: (§6) Besides, it was as cytotoxic as 19 towards cancer cells while showing a more favorable selectivity index. On these basis, compound 27 was chosen for in vivo experiments against a syngeneic murine solid tumor model, the murine Lewis Lung Carcinoma (LLC). The tumor growth inhibition induced by 27 was compared with that promoted by cisplatin (CDDP), the most common chemotherapeutic drug used in the treatment of lung cancers. Nine days after tumor inoculation, tumor-bearing mice were randomized into vehicle control and treatment groups (8 mice per group). Control mice received the vehicle (0.2%v/v EtOH and 99.8%v/v of a saline solution), whereas treated groups received daily doses of 27 (7.5 mg · kg^−1 in the vehicle solution composed of 0.2%v/v EtOH and 99.8%v/v of saline solution) or CDDP (1.5 mg · kg^−1 in saline solution). Tumor growth was estimated at day 20 (Fig. 7a). As an indication of the adverse side effects, changes in the body weights of tumor-bearing mice were monitored at day 1 and daily from day 9.
Figure 7 In vivo testing of compound 27. Lewis lung carcinoma (LLC) was implanted i.m. (2 · 10^6 cells inoculum) into the right hind leg of 8-week old imbred C57BL mice. Nine days after tumor inoculation (palpable tumor), tumor-bearing mice were randomized into vehicle control and treatment groups (8 mice per group). Compound 27 was dosed daily at 7.5 mg/kg ip and CDDP was dosed daily at 1.5 mg/kg ip. At day 20, animals were sacrificed (i.e., before tumor can cause the animal discomfort), the legs were amputated at the proximal end of the femur, and the inhibition of tumor growth was determined according to the difference in weight of the tumor-bearing leg and the healthy leg of the animals expressed as % referred to the control animals. Control was constituted by vehicle (0.2%v/v EtOH and 99.8%v/v of saline solution). CDDP was used as positive reference. Both 27 and CDDP were administered at the highest not toxic doses (7.5 and 1.5 mg/kg, respectively), as determined by MTD studies. (a) Average tumor weight (g) after 20 days of treatment with control or compounds. (b) Percentage of reduction in tumor growth after 20 days of treatment with respect to control mice. (c) Body weight changes. The body weight changes of LLC bearing C57BL mice treated with vehicle or tested compounds. Each drug was administered daily after 9 days from the tumor cell inoculum. Weights were measured at day 1 and daily from day 9. Error bars indicate the standard deviation.
All studies involving animal testing were carried out in accordance with the ethical guidelines for animal research adopted by the University of Padua, acknowledging the Italian regulation (D.L.G.S. 116/92) and European Directive 86/609/EEC as to the animal welfare and protection and the related codes of practice. […]

[2] = Body weight changes of LLC bearing mice; format: in vivo; settings: mouse, in vivo, ip, 1.5 mg/kg
From the text: as §6, with “Control mice received the vehicle (0.2%v/v EtOH and 99.8%v/v of a saline solution), whereas treated groups received daily doses of 27 (7.5 mg · kg^−1 in the vehicle solution composed of 0.2%v/v EtOH and 99.8%v/v of saline solution) or CDDP (1.5 mg · kg^−1 in saline solution). Tumor growth was estimated at day 20 (Fig. 7a).” left out
Figure 7 In vivo testing of compound 27. […] At day 20, animals were sacrificed (i.e., before tumor can cause the animal discomfort), the legs were amputated at the proximal end of the femur, and the inhibition of tumor growth was determined according to the difference in weight of the tumor-bearing leg and the healthy leg of the animals expressed as % referred to the control animals. […] Both 27 and CDDP were administered at the highest not toxic doses (7.5 and 1.5 mg/kg, respectively), as determined by MTD studies. […] Weights were measured at day 1 and daily from day 9. […]

[3] = MTD studies (highest not toxic dose); format: in vivo; settings: daily ip

T1 sequence (P00533 25-1210): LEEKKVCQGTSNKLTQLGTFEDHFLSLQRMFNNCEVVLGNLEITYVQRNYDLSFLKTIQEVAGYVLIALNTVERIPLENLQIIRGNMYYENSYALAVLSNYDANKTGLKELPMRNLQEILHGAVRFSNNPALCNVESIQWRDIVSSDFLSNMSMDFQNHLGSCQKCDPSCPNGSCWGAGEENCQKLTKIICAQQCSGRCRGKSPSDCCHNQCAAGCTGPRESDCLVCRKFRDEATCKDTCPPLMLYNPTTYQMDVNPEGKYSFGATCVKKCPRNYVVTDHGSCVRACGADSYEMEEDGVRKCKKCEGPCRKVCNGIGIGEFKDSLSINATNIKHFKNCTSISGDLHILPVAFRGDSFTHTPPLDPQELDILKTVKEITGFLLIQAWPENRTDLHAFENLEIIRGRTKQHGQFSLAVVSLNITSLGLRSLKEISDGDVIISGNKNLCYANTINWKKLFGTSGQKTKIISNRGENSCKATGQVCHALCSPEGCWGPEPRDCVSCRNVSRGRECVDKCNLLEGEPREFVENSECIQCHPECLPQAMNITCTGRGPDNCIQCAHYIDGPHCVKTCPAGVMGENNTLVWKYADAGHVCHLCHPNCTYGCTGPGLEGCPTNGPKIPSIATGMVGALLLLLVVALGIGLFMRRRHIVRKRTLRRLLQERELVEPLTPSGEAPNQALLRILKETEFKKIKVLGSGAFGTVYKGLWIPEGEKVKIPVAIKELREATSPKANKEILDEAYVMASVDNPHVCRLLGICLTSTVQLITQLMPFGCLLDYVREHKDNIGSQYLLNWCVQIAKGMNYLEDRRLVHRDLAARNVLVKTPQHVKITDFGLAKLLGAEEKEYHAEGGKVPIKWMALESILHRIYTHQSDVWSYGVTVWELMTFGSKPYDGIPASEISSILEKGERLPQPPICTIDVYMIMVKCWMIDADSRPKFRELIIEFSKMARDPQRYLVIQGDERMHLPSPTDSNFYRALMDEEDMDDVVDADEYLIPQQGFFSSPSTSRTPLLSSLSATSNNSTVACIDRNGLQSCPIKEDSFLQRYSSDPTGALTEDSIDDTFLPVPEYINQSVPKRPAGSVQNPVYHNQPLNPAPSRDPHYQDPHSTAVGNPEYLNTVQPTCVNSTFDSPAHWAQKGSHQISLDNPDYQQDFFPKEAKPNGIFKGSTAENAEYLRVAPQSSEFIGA

Activity against EGFR in primary screening (EGFR) | Compound | IC50 (A549 cells; Homo sapiens, A549, 72 h, MTT test, 72 h of drug treatment, read-out: A549 IC50 (μM) ± SD) [µM] | Potency relative to SU (A549) (A549 cells; ratio between IC50 of sunitinib and IC50 of tested compound, A549) | IC50 (BxPC3 cells; Homo sapiens, BXPC-3, MTT test, 72 h of drug treatment, read-out: BxPC3 IC50 (μM) ± SD) [µM] | Potency relative to SU (BxPC3) (BxPC3 cells; ratio between IC50 of sunitinib and IC50 of tested compound, BxPC3) | IC50 (HEK293 cells; Homo sapiens, HEK293, MTT test, 72 h, non-tumor cells, read-out: HEK293 IC50 (μM) ± SD) [µM] | Selectivity Index (HEK293 cells; IC50 toward non cancerous HEK293 cells divided by the average IC50 for the malignant cells (A549, BxPC3)) | Selectivity profile (kinases targeted) in primary screening (panel of 48 kinases) | Inhibition of tumor growth (%) ([1]; daily ip from day 9, day 20, versus vehicle control) | Average tumor weight (mean±S.D., g) ([1]; daily ip from day 9, day 20) [g] | Body weight loss (in words) [2] | Highest not toxic dose as determined by MTD studies [3] [mg/kg]
very poor activity | O=C(Nc1ccccc1)Nc1ccc(Nc2cc(Nc3ccccc3)ncn2)cc1 [Compound 7] | 5.13 ± 0.94 | 1.21 | 4.6 ± 0.85 | 1.10 | 3.14 ± 0.57 | 0.64 | class III RTK | – | – | – | –
– | [NH2][Pt]([NH2])([Cl])[Cl] [CDDP, cisplatin, reference compound] | – | – | – | – | – | – | – | 71.63% and 71.6% | 0.139 ± 0.09 | elevated body weight loss | 1.5
